Data as given in patent US20230059463A1, “3-(2-BROMO-4-ALKYNYL-6-ALKOXYPHENYL)-SUBSTITUTED 5-SPIROCYCLOHEXYL-3-PYRROLIN-2-ONES AND THEIR USE AS HERBICIDES” (Bayer Aktiengesellschaft, priority 2019, published 2023).

Legend:
Assay type in all cases: in vivo
[1] = test system: Lolium rigidum; assay: Post-emergence herbicidal effect; conditions: 80 g/ha, post-emergence at one-leaf stage, assessed visually after about 3 weeks; 100% = plants have died, 0% = like control plants
Method: (§1) Seeds of monocotyledonous and dicotyledonous weed and crop plants are laid out in sandy loam soil in wood-fiber pots, covered with soil and cultivated in a greenhouse under good growth conditions. 2 to 3 weeks after sowing, the test plants are treated at the one-leaf stage. The compounds of the invention, formulated in the form of wettable powders (WP) or as emulsion concentrates (EC), are then sprayed onto the green parts of the plants as aqueous suspension or emulsion at a water application rate equating to 600 to 800 l/ha with addition of 0.2% wetting agent. After the test plants have been left to stand in the greenhouse under optimal growth conditions for about 3 weeks, the action of the preparations is assessed visually in comparison to untreated controls (herbicidal action in per cent (%): 100% activity=the plants have died, 0% activity=like control plants).

[2] = test system: Setaria viridis; assay: Post-emergence herbicidal effect; conditions: 80 g/ha, post-emergence at one-leaf stage, assessed visually after about 3 weeks; 100% = plants have died, 0% = like control plants
Method: as §1

[3] = test system: Echinochloa crus-galli; assay: Post-emergence herbicidal effect; conditions: 80 g/ha, post-emergence at one-leaf stage, assessed visually after about 3 weeks; 100% = plants have died, 0% = like control plants
Method: as §1

[4] = test system: Alopecurus myosuroides; assay: Post-emergence herbicidal effect; conditions: 80 g/ha, post-emergence at one-leaf stage, assessed visually after about 3 weeks; 100% = plants have died, 0% = like control plants
Method: as §1

[5] = test system: Digitaria sanguinalis; assay: Post-emergence herbicidal effect; conditions: 80 g/ha, post-emergence at one-leaf stage, assessed visually after about 3 weeks; 100% = plants have died, 0% = like control plants
Method: as §1

[6] = test system: Lolium rigidum; assay: Pre-emergence herbicidal effect; conditions: 80 g/ha, scored visually after 3 weeks, 100% = plants have died, 0% = like control plants
Source text: (§2) Seeds of monocotyledonous and dicotyledonous weed plants and crop plants are laid out in sandy loam soil in wood-fiber pots and covered with soil. The compounds of the invention, formulated in the form of wettable powders (WP) or as emulsion concentrates (EC), are then applied to the surface of the covering soil as aqueous suspension or emulsion at a water application rate equating to 600 to 800 L/ha with addition of 0.2% wetting agent.
(§3) After the treatment, the pots are placed in a greenhouse and kept under good growth conditions for the trial plants. The damage to the test plants is scored visually after a test period of 3 weeks by comparison with untreated controls (herbicidal activity in percent (%): 100% activity=the plants have died, 0% activity=like control plants).

[7] = test system: Setaria viridis; assay: Pre-emergence herbicidal effect; conditions: 80 g/ha, scored visually after 3 weeks, 100% = plants have died, 0% = like control plants
Source text: as §2, §3

[8] = test system: Echinochloa crus-galli; assay: Pre-emergence herbicidal effect; conditions: 80 g/ha, scored visually after 3 weeks, 100% = plants have died, 0% = like control plants
Source text: as §2, §3

[9] = test system: Avena fatua; assay: Pre-emergence herbicidal effect; conditions: 80 g/ha, scored visually after 3 weeks, 100% = plants have died, 0% = like control plants
Source text: as §2, §3

[10] = test system: Alopecurus myosuroides; assay: Pre-emergence herbicidal effect; conditions: 80 g/ha, scored visually after 3 weeks, 100% = plants have died, 0% = like control plants
Source text: as §2, §3

[11] = test system: Hordeum murinum; assay: Pre-emergence herbicidal effect; conditions: 80 g/ha, scored visually after 3 weeks, 100% = plants have died, 0% = like control plants
Source text: as §2, §3

[12] = test system: Hordeum murinum; assay: Post-emergence herbicidal effect; conditions: 80 g/ha, post-emergence at one-leaf stage, assessed visually after about 3 weeks; 100% = plants have died, 0% = like control plants
Method: as §1

Row | SMILES | Post-emergence action against LOLRI (herbicidal action in per cent) [1] [%] | Post-emergence action against SETVI (herbicidal action in per cent) [2] [%] | Post-emergence action against ECHCG (herbicidal action in per cent) [3] [%] | Post-emergence action against ALOMY (herbicidal action in per cent) [4] [%] | Post-emergence action against DIGSA (herbicidal action in per cent) [5] [%] | Pre-emergence action against LOLRI (herbicidal activity in percent) [6] [%] | Pre-emergence action against SETVI (herbicidal activity in percent) [7] [%] | Pre-emergence action against ECHCG (herbicidal activity in percent) [8] [%] | Pre-emergence action against AVEFA (herbicidal activity in percent) [9] [%] | Pre-emergence action against ALOMY (herbicidal activity in percent) [10] [%] | Pre-emergence action against HORMU (herbicidal activity in percent) [11] [%] | Post-emergence action against HORMU (herbicidal action in per cent) [12] [%]
1 | C#Cc1cc(Br)c(C2=C(OC(=O)OCC)C3(CCCC(OCCC)C3)NC2=O)c(OC)c1 (stereo not shown) [Example 1.1.03] | 80 | 100 | 90 | 80 | 90 | 100 | 100 | 100 | 90 | 90 | 90 | –
2 | C#Cc1cc(Br)c(C2=C(OC(=O)C(C)C)C3(CCCC(OCCC)C3)NC2=O)c(OC)c1 (stereo not shown) [Example 1.1.04] | 80 | 100 | 80 | 90 | 90 | 100 | 100 | 100 | 90 | 100 | 90 | –
3 | C#Cc1cc(Br)c(C2=C(O)C3(CCCC(OCCOC)C3)NC2=O)c(OC)c1 (stereo not shown) [Example 1.1.05] | 80 | 90 | 80 | 90 | 80 | 100 | 100 | 100 | 90 | 90 | 90 | –
4 | C#Cc1cc(Br)c(C2=C(OC(=O)OCC)C3(CCCC(OCCOC)C3)NC2=O)c(OC)c1 (stereo not shown) [Example 1.1.07] | 80 | 90 | 80 | 80 | 90 | 100 | 100 | 100 | 90 | 90 | 90 | –
5 | C#Cc1cc(Br)c(C2=C(OC(=O)C(C)C)C3(CCCC(OCCOC)C3)NC2=O)c(OC)c1 (stereo not shown) [Example 1.1.08] | 90 | 90 | 80 | 90 | 90 | 100 | 100 | 100 | 90 | 100 | 90 | –
6 | CC#Cc1cc(Br)c(C2=C(O)C3(CCCC(OCCC)C3)NC2=O)c(OC)c1 (stereo not shown) [Example 1.1.09, 3-[2-Bromo-6-methoxy-4-(prop-1-yn-1-yl)phenyl]-7-propoxy-1-azaspiro[4.5]decane-2,4-dione] | 90 | 90 | 90 | 90 | – | 100 | 100 | 100 | 100 | 100 | 100 | 100
7 | CC#Cc1cc(Br)c(C2=C([O-])C3(CCCC(OCCC)C3)NC2=O)c(OC)c1.[Na+] (stereo not shown) [Example 1.1.10] | 90 | 90 | 100 | 90 | – | 100 | 100 | 100 | 100 | 90 | 100 | 100
8 | CC#Cc1cc(Br)c(C2=C(OC(=O)OCC)C3(CCCC(OCCC)C3)NC2=O)c(OC)c1 (stereo not shown) [Example 1.1.11, 3-[2-Bromo-6-methoxy-4-(prop-1-yn-1-yl)phenyl]-2-oxo-7-propoxy-1-azaspiro[4.5]dec-3-en-4-yl ethyl carbonate] | – | – | – | – | – | – | – | – | – | – | – | 100
9 | CC#Cc1cc(Br)c(C2=C(OC(=O)C(C)C)C3(CCCC(OCCC)C3)NC2=O)c(OC)c1 (stereo not shown) [Example 1.1.12] | – | – | – | – | – | 100 | 100 | 100 | 90 | 100 | 100 | –
10 | COCCOC1CCCC2(C1)NC(=O)C(c1c(Br)cc(C#CBr)cc1OC)=C2O (stereo not shown) [Example 1.1.23] | 80 | 100 | 90 | 90 | 80 | 90 | 100 | – | – | 90 | – | –
11 | CCOC(=O)OC1=C(c2c(Br)cc(C#CBr)cc2OC)C(=O)NC12CCCC(OCCOC)C2 (stereo not shown) [Example 1.1.25] | 80 | 90 | 90 | 90 | 80 | 90 | 100 | – | – | 80 | – | –
